We go through three compounds from publication PMC3025038 (Organic & biomolecular chemistry, 2009).

Each structure is given as a SMILES string.

For series [1] the following is noted: mice; liver, spleen, kidney bone marrow, or brain tissue; cited from earlier work.
Series [2] concerns the target T1, KOP receptors (Homo sapiens, UniProt P41145). It is filed as binding.
In series [3] the target is T1, KOP receptors. Put plainly: biochemical. Format: biochemical. The note with it: for Emax: read-out: KOP Emax.

By Emax is commonly meant the greatest response seen or fitted, relative to the assay's reference.

T1 sequence (P41145 whole entry): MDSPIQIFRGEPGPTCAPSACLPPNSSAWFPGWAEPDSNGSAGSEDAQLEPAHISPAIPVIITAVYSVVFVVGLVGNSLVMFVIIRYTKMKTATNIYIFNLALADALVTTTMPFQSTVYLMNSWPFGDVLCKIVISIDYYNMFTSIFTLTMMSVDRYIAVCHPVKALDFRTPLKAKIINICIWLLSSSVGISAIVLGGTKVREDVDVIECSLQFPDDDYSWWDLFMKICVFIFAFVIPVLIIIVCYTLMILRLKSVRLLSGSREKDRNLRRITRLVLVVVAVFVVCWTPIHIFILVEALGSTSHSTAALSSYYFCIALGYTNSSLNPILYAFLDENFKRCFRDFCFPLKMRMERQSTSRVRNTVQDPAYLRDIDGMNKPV

As to `COC(=O)[C@@H]1C[C@H](OC(C)=O)C(=O)[C@H]2[C@@]1(C)CC[C@H]1C(=O)O[C@H](c3ccoc3)C[C@]21C` [Compound 1, salvinorin A], in series [1], the “histological differences versus control animals” value is listed as “no histological differences”.

As for `COC(=O)[C@@H]1C[C@H](OC(C)=O)C(=O)[C@H]2[C@@]1(C)CC[C@H]1C(=O)O[C@H](C(=O)N3CCCCC3)C[C@]21C` [Compound 21, (2S,4aR,6aR,7R,9S,10aS,10bR)-methyl 9-acetoxy-6a,10b-dimethyl-4,10-dioxo-2-(piperidine-1-carbonyl)dodecahydro-1H-benzo[f]isochromene-7-carboxylate], at KOP receptors [2], the “fold increase in affinity for KOP receptors” value was determined as 9 fold. Besides, on KOP receptors [3], the “fold less active than 1 as agonists” value was “approximately 100 fold”, the “functional character at KOPs (in words)” value is “selective partial agonists” and the Emax turned out to be 85 ± 13%.

With `COC(=O)[C@@H]1C[C@H](OC(C)=O)C(=O)[C@H]2[C@@]1(C)CC[C@H]1C(=O)O[C@H](C(=O)N3CCSCC3)C[C@]21C` [Compound 23, (2S,4aR,6aR,7R,9S,10aS,10bR)-methyl 9-acetoxy-6a,10b-dimethyl-4,10-dioxo-2-(thiomorpholine-4-carbonyl)dodecahydro-1H-benzo[f]isochromene-7-carboxylate], at KOP receptors [3], the “fold less active than 1 as agonists” value was “approximately 100 fold”, the “functional character at KOPs (in words)” value is given as “selective partial agonists” and the Emax turned out to be 57 ± 6%.
